The record followed here is US7718641B2, “Pyrrolo [3,4-H] isoquinoline compounds and methods for modulating gated ion channels” (Aros Pharma ApS, priority 2005, dated 2010).

In the assay the target is T1, homomeric hASIC1a (Homo sapiens, UniProt P78348).
T1 construct: expressed in transfected cells; host or cells: Xenopus laevis oocytes (nuclear cDNA microinjection)
T1 sequence (P78348 1-528): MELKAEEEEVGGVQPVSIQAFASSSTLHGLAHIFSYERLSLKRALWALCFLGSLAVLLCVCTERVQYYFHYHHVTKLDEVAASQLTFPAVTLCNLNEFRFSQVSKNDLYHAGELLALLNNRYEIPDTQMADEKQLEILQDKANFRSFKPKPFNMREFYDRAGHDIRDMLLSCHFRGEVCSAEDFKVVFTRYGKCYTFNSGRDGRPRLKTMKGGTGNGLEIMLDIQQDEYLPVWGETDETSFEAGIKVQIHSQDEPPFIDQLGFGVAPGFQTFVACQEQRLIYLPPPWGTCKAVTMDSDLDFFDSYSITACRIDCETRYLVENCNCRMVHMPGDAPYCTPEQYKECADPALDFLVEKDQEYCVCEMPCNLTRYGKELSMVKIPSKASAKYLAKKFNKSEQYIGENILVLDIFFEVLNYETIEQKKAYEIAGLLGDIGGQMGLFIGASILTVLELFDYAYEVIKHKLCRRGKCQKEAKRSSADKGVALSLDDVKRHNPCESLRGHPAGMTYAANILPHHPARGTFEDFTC
As to the kind of experiment: Two-electrode voltage clamp in Xenopus laevis oocytes expressing homomeric hASIC1a. It is filed as cell-based. Conditions: 30 μM, OpusExpress. Here is the method: Two-electrode voltage clamp electrophysiological assays in Xenopus laevis oocytes expressing gated ion channels are performed as follows:
Oocytes are surgically removed from adult Xenopus laevis and treated for 2 h at room temperature with 1 mg/ml type I collagenase (Sigma) in Barth's solution under mild agitation. Selected oocytes at stage IV-V are defolliculated manually before nuclear microinjection of 2.5-5 ng of a suitable expression vector, such as pcDNA3, comprising the nucleotide sequence encoding a gated ion channel subunit protein. In such an experiment, the oocytes express homomultimeric proton-gated ion channels on their surface. In an alternate experiment, one, two, three or more vectors comprising the coding sequences for distinct gated ion channel subunits are co-injected in the oocyte nuclei. […] After 2-4 days of expression at 19° C. in Barth's solution containing […] gentamicin and 1.8 mM CaCl2, gated ion channels are activated by applying an acidic solution (pH <7) and currents are recorded in a two electrode voltage-clamp configuration, using an OC-725B amplifier (Warner Instruments). Currents are acquired and digitized at 500 Hz on an Apple Imac G3 computer with an A/D NB-MIO-16XL interface (National Instruments) and recorded traces are post-filtered at 100 Hz in Axograph (Axon Instruments) (Neher, E. and Sakmann, B. (1976) Nature 260:799-802). […]

Consider `COc1ccc(F)cc1-c1cc2c(c3c1CCN(C)C3)NC(=O)/C2=N/O` [Compound A, 5-(5-fluoro-2-methoxyphenyl)-6,7,8,9-tetrahydro-3-(hydroxyimino)-8-methyl-1H-pyrrolo[3,2-h]isoquinoline-2(3H)-one], for which the “effect on inward currents elicited by pH 6.5, homomeric hASIC1a” value is “effectively modulates the activity”.
